US20120178915A1, “PYRIMIDINE DERIVATIVES AND ANALOGS, PREPARATION METHOD AND USE THEREOF” (priority 2009, published 2012)
Converted amounts (≈) assume the structure as drawn. Read-outs that look alike come from different tables or passages of the source.

What was measured:
Oral candidiasis = assay: MIC broth microdilution; assay type: cell-based; settings: Microorganism 32, Oral candidiasis; 37° C., 24 h; read-out: Minimum Inhibitory Concentration, MIC
[1] = system: Streptococcus pneumoniae 6303 (PRSP); assay: microbe, parasite or virus in culture; assay type: cell-based; settings: 24 h, read-out: Minimum Inhibitory Concentration, MIC
[2] = system: Staphylococcus aureus 704 (MRSA); assay: microbe, parasite or virus in culture; assay type: cell-based; settings: 24 h, read-out: Minimum Inhibitory Concentration, MIC
[3] = system: Enterococcus faecalis 29212; assay: microbe, parasite or virus in culture; assay type: cell-based; settings: 37° C., 24 h, read-out: Minimum Inhibitory Concentration, MIC
[4] = system: Corynebacterium diphtheriae; assay: microbe, parasite or virus in culture; assay type: cell-based; settings: 37° C., 24 h, read-out: Minimum Inhibitory Concentration, MIC
Pyogenic Streptococcus = assay: microbe, parasite or virus in culture; assay type: cell-based; settings: 37° C., 24 h, read-out: Minimum Inhibitory Concentration, MIC
[5] = system: Staphylococcus aureus 43300 (MRSA); assay: microbe, parasite or virus in culture; assay type: cell-based; settings: 24 h, read-out: Minimum Inhibitory Concentration, MIC
Clostridium tetani = assay: microbe, parasite or virus in culture; assay type: cell-based; settings: 24 h
Bacillus cereus 2 = assay: microbe, parasite or virus in culture; assay type: cell-based; settings: 37° C., 24 h, read-out: Minimum Inhibitory Concentration, MIC
[6] = system: Streptococcus pneumoniae 6301; assay: microbe, parasite or virus in culture; assay type: cell-based; settings: 37° C., 24 h, read-out: Minimum Inhibitory Concentration, MIC
Bacillus anthracis 1 = assay: microbe, parasite or virus in culture; assay type: cell-based; settings: Bacillus anthracis, 1, 24 h, read-out: Minimum Inhibitory Concentration, MIC
[7] = system: Staphylococcus aureus 29231; assay: microbe, parasite or virus in culture; assay type: cell-based; settings: 37° C., 24 h, read-out: Minimum Inhibitory Concentration, MIC
[8] = system: Enterococcus faecalis 1513 (VRE); assay: microbe, parasite or virus in culture; assay type: cell-based; settings: 24 h, read-out: Minimum Inhibitory Concentration, MIC
[9] = system: Streptococcus bovis 10035; assay: microbe, parasite or virus in culture; assay type: cell-based; settings: Streptococcus equinus, 37° C., 24 h, read-out: Minimum Inhibitory Concentration, MIC
MIC broth microdilution = assay type: cell-based; settings: Microorganism 33, Dermatophytosis; 37° C., 24 h; read-out: Minimum Inhibitory Concentration, MIC
Bacillus subtilis 168 = assay: microbe, parasite or virus in culture; assay type: cell-based; settings: 37° C., 24 h, read-out: Minimum Inhibitory Concentration, MIC
Streptococcus 10342 = assay: MIC broth microdilution; assay type: cell-based; settings: 37° C., 24 h, read-out: Minimum Inhibitory Concentration, MIC
[10] = system: Streptococcus pneumoniae 10351; assay: microbe, parasite or virus in culture; assay type: cell-based; settings: 37° C., 24 h, read-out: Minimum Inhibitory Concentration, MIC
[11] = system: Enterococcus faecalis 19433; assay: microbe, parasite or virus in culture; assay type: cell-based; settings: 37° C., 24 h, read-out: Minimum Inhibitory Concentration, MIC
Bacillus subtilis 82 = assay: microbe, parasite or virus in culture; assay type: cell-based; settings: 37° C., 24 h, read-out: Minimum Inhibitory Concentration, MIC
[12] = system: Staphylococcus aureus 705 (MRSA); assay: microbe, parasite or virus in culture; assay type: cell-based; settings: 24 h, read-out: Minimum Inhibitory Concentration, MIC
Clostridium perfringens = assay: microbe, parasite or virus in culture; assay type: cell-based; settings: 24 h, read-out: Minimum Inhibitory Concentration, MIC
[13] = system: Staphylococcus aureus 703 (MRSA); assay: microbe, parasite or virus in culture; assay type: cell-based; settings: 24 h, read-out: Minimum Inhibitory Concentration, MIC
[14] = system: Enterococcus faecalis 51299; assay: microbe, parasite or virus in culture; assay type: cell-based; settings: Enterococcus faecalis, 51299, 24 h, read-out: Minimum Inhibitory Concentration, MIC
green Streptococcus 1009 = assay: microbe, parasite or virus in culture; assay type: cell-based; settings: 37° C., 24 h, read-out: Minimum Inhibitory Concentration, MIC
[15] = system: Streptococcus agalactiae B; assay: microbe, parasite or virus in culture; assay type: cell-based; settings: 37° C., 24 h, read-out: Minimum Inhibitory Concentration, MIC
[16] = system: Enterococcus fecal F631 (VRE); assay: organism not typed; assay type: cell-based; settings: 24 h, read-out: Minimum Inhibitory Concentration, MIC
[17] = system: Enterococcus faecalis F2518 (VRE); assay: microbe, parasite or virus in culture; assay type: cell-based; settings: 24 h, read-out: Minimum Inhibitory Concentration, MIC
Bacillus cereus 246 = assay: microbe, parasite or virus in culture; assay type: cell-based; settings: 37° C., 24 h, read-out: Minimum Inhibitory Concentration, MIC
[18] = system: Streptococcus pneumoniae 62; assay: microbe, parasite or virus in culture; assay type: cell-based; settings: 37° C., 24 h, read-out: Minimum Inhibitory Concentration, MIC
[19] = system: Streptococcus pneumoniae M2; assay: microbe, parasite or virus in culture; assay type: cell-based; settings: 37° C., 24 h, read-out: Minimum Inhibitory Concentration, MIC
[20] = system: Enterococcus faecalis 583 (VRE); assay: microbe, parasite or virus in culture; assay type: cell-based; settings: 24 h, read-out: Minimum Inhibitory Concentration, MIC
MRSA 2152 = assay: Antibacterial studies in vivo, survival of mice infected with MRSA 2152; settings: dose mg/kg: ciprofloxacin 20, 3: 30, 7: 40, 21: 50, 33: 25, 70: 70
[21] = read-out: Minimum Inhibitory Concentration, MIC, Microorganism 29, Clostridium tetani, 37° C.
[22] = read-out: Minimum Inhibitory Concentration, MIC, Microorganism 30, Clostridium tetani (second line of that name), 37° C.

Row | SMILES | MIC (Oral candidiasis) | MIC [1] | MIC [2] | MIC [3] | MIC [4] | MIC (Pyogenic Streptococcus) | MIC [5] | MIC (Clostridium tetani; [21]) | MIC (Clostridium tetani; [22]) | MIC (Bacillus cereus 2) | MIC [6] | MIC (Bacillus anthracis 1) | MIC [7] | MIC [8] | MIC [9] | MIC (MIC broth microdilution) | MIC (Bacillus subtilis 168) | MIC (Streptococcus 10342) | MIC [10] | MIC [11] | also measured
1 | Nc1nc(-c2ccccc2)nc2c1cnn2-c1ccccc1 [Compound 38] | 150 µM (≈ 43.2 µg/mL) | 125 µM (≈ 35.9 µg/mL) | 160 µM (≈ 46.1 µg/mL) | 145 µM (≈ 41.7 µg/mL) | 150 µM (≈ 43.2 µg/mL) | 126 µM (≈ 36.3 µg/mL) | 210 µM (≈ 60.4 µg/mL) | 160 µM (≈ 46.1 µg/mL) | 120 µM (≈ 34.6 µg/mL) | 124 µM (≈ 35.5 µg/mL) | 141 µM (≈ 40.4 µg/mL) | 266 µM (≈ 76.4 µg/mL) | 100 µM (≈ 28.8 µg/mL) | 150 µM (≈ 43.2 µg/mL) | 121 µM (≈ 34.9 µg/mL) | 121 µM (≈ 34.8 µg/mL) | 212 µM (≈ 61.1 µg/mL) | 131 µM (≈ 37.7 µg/mL) | 136 µM (≈ 39.2 µg/mL) | 108 µM (≈ 31.2 µg/mL) | MIC (Bacillus subtilis 82): 120 µM (≈ 34.5 µg/mL); MIC [12]: 210 µM (≈ 60.4 µg/mL); MIC (Clostridium perfringens): 125 µM (≈ 35.9 µg/mL); MIC [13]: 215 µM (≈ 61.8 µg/mL); MIC [14]: 106 µM (≈ 30.6 µg/mL); MIC (green Streptococcus 1009): 101 µM (≈ 29.1 µg/mL); MIC [15]: 105 µM (≈ 30.2 µg/mL); MIC [16]: 151 µM (≈ 43.4 µg/mL); MIC [17]: 116 µM (≈ 33.2 µg/mL); MIC (Bacillus cereus 246): 154 µM (≈ 44.3 µg/mL); MIC [18]: 140 µM (≈ 40.4 µg/mL); MIC [19]: 156 µM (≈ 44.9 µg/mL); MIC [20]: 160 µM (≈ 46.1 µg/mL)
2 | Cc1nn2c(=O)c(C)c(-c3ccc(C#N)cc3)[nH]c2c1-c1ccc(C(F)(F)F)cc1 [Compound 33] | 126 µM (≈ 51.3 µg/mL) | 1.3 µM (≈ 0.531 µg/mL) | 0.28 µM (≈ 0.114 µg/mL) | 2.5 µM (≈ 1.02 µg/mL) | 80.3 µM (≈ 32.8 µg/mL) | 0.63 µM (≈ 0.257 µg/mL) | 0.55 µM (≈ 0.225 µg/mL) | 60.3 µM (≈ 24.6 µg/mL) | 50.6 µM (≈ 20.7 µg/mL) | 1.25 µM (≈ 0.51 µg/mL) | 2.5 µM (≈ 1.02 µg/mL) | 35.6 µM (≈ 14.5 µg/mL) | 0.63 µM (≈ 0.257 µg/mL) | 5 µM (≈ 2.04 µg/mL) | 10.5 µM (≈ 4.29 µg/mL) | 53.6 µM (≈ 21.9 µg/mL) | 1.25 µM (≈ 0.51 µg/mL) | 0.3 µM (≈ 0.123 µg/mL) | 0.04 µM (≈ 0.0163 µg/mL) | 5 µM (≈ 2.04 µg/mL) | Survival rate (%) (life prolongation rate) (MRSA 2152; (survival days of test group − blank group)/blank group ×100%, MRSA 2152 mice, tail vein): 169.2%; Survival (MRSA 2152; mice inoculated intraperitoneally with MRSA 2152, test compound by tail vein, repeated after six hours, saline 1.3 days): 3.5 days; MIC (Bacillus subtilis 82): 0.31 µM (≈ 0.127 µg/mL); MIC [12]: 0.33 µM (≈ 0.135 µg/mL); MIC (Clostridium perfringens): 31.2 µM (≈ 12.7 µg/mL); MIC [13]: 0.42 µM (≈ 0.172 µg/mL); MIC [14]: 2.5 µM (≈ 1.02 µg/mL); MIC (green Streptococcus 1009): 0.3 µM (≈ 0.123 µg/mL); MIC [15]: 0.56 µM (≈ 0.229 µg/mL); MIC [16]: 0.63 µM (≈ 0.257 µg/mL); MIC [17]: 2.5 µM (≈ 1.02 µg/mL); MIC (Bacillus cereus 246): 1.25 µM (≈ 0.51 µg/mL); MIC [18]: 0.63 µM (≈ 0.257 µg/mL); MIC [19]: 1.25 µM (≈ 0.51 µg/mL); MIC [20]: 2.5 µM (≈ 1.02 µg/mL)
3 | CCc1nn2c(=O)c(C)c(-c3ccc(C(F)(F)F)cc3)[nH]c2c1-c1ccc(Cl)cc1Cl [Compound 23] | 122 µM (≈ 56.9 µg/mL) | 231 µM (≈ 108 µg/mL) | 180 µM (≈ 84 µg/mL) | 220 µM (≈ 103 µg/mL) | 162 µM (≈ 75.3 µg/mL) | 231 µM (≈ 108 µg/mL) | 120 µM (≈ 56.2 µg/mL) | 80.2 µM (≈ 37.4 µg/mL) | 50.2 µM (≈ 23.4 µg/mL) | 110 µM (≈ 51.5 µg/mL) | 170 µM (≈ 79.4 µg/mL) | 166 µM (≈ 77.6 µg/mL) | 282 µM (≈ 131 µg/mL) | 152 µM (≈ 71 µg/mL) | 153 µM (≈ 71.3 µg/mL) | 56.1 µM (≈ 26.2 µg/mL) | 101 µM (≈ 47.2 µg/mL) | 123 µM (≈ 57.4 µg/mL) | 155 µM (≈ 72.4 µg/mL) | 140 µM (≈ 65.4 µg/mL) | MIC (Bacillus subtilis 82): 110 µM (≈ 51.4 µg/mL); MIC [12]: 150 µM (≈ 70 µg/mL); MIC (Clostridium perfringens): 30.6 µM (≈ 14.3 µg/mL); MIC [13]: 131 µM (≈ 60.9 µg/mL); MIC [14]: 130 µM (≈ 60.8 µg/mL); MIC (green Streptococcus 1009): 210 µM (≈ 98.1 µg/mL); MIC [15]: 200 µM (≈ 93.5 µg/mL); MIC [16]: 80.5 µM (≈ 37.5 µg/mL); MIC [17]: 215 µM (≈ 100 µg/mL); MIC (Bacillus cereus 246): 200 µM (≈ 93.4 µg/mL); MIC [18]: 160 µM (≈ 74.8 µg/mL); MIC [19]: 200 µM (≈ 93.4 µg/mL); MIC [20]: 132 µM (≈ 61.3 µg/mL)
